We go through 20 molecules from patent US9668477B2, “Active compound combinations” (BAYER CROPSCIENCE AG, priority 2012, dated 2017).

What all share (assay type): in vivo
Experiment [1] concerns Phakopsora pachyrhizi. Briefly: Phakopsora test (soybeans)/preventive. The conditions noted are these: 7 days after inoculation.
The subject of experiment [2] is Uromyces appendiculatus. The experiment in a line: Uromyces test (beans)/preventive. The conditions noted are these: 10 days after inoculation. As to the method: (§1) Solvent: 24.5 parts by weight of acetone • 24.5 parts by weight of dimethylacetamide
(§2) Emulsifier: 1 part by weight of alkylaryl polyglycol ether
(§3) To produce a suitable preparation of active compound, 1 part by weight of active compound is mixed with the stated amounts of solvent and emulsifier, and the concentrate is diluted with water to the desired concentration.
To test for preventive activity, young plants are sprayed with the preparation of active compound at the stated rate of application. After the spray coating has dried on, the plants are inoculated with an aqueous spore suspension of the causal agent of bean rust (Uromyces appendiculatus) and then remain for 1 day in an incubation cabinet at approximately 20° C. and a relative atmospheric humidity of 100%.
The plants are then placed in a greenhouse at approximately 21° C. and a relative atmospheric humidity of approximately 90%.
The test is evaluated 10 days after the inoculation. 0% means an efficacy which corresponds to that of the untreated control, while an efficacy of 100% means that no disease is observed.

The subject of experiment [3] is Venturia inaequalis. The experiment in a line: Venturia test (apples)/preventive. The conditions noted are these: Table I1, 10 days after inoculation. On the procedure:
(§4) Solvent: 24.5 parts by weight of acetone • 24.5 parts by weight of dimethylacetamide Emulsifier: 1 part by weight of alkylaryl polyglycol ether To produce a suitable preparation of active compound, 1 part by weight of active compound is mixed with the stated amounts of solvent and emulsifier, and the concentrate is diluted with water to the desired concentration. To test for preventive activity, young plants are sprayed with the preparation of active compound at the stated rate of application.

Experiment [4] concerns Alternaria solani. Briefly: Alternaria test (tomatoes)/preventive. The settings on record: 3 days after inoculation. As to the method: as §1, §2, §3
To test for preventive activity, young plants are sprayed with the preparation of active compound at the stated rate of application. After the spray coating has dried on, the plants are inoculated with an aqueous spore suspension of Alternaria solani. The plants are then placed in an incubation cabinet at approximately 20° C. and a relative atmospheric humidity of 100%.
The test is evaluated 3 days after the inoculation. 0% means an efficacy which corresponds to that of the untreated control while an efficacy of 100% means that no disease is observed.

Experiment [5] concerns Leptosphaeria nodorum. Briefly: Leptosphaeria nodorum test (wheat)/preventive. The settings on record: Table C1, 8 days after inoculation. On the procedure:
Solvent: 49 parts by weight of N,N-dimethylacetamide Emulsifier: 1 part by weight of alkylaryl polyglycol ether To produce a suitable preparation of active compound, 1 part by weight of active compound or active compound combination is mixed with the stated amounts of solvent and emulsifier, and the concentrate is diluted with water to the desired concentration. To test for preventive activity, young plants are sprayed with the preparation of active compound or active compound combination at the stated rate of application. After the spray coating has been dried, the plants are sprayed with a spore suspension of Leptosphaeria nodorum.

Experiment [6] has as its system Puccinia triticina. The experiment in a line: Puccinia triticina-test (wheat)/preventive. The conditions noted are these: Table E1, 8 days after inoculation. On the procedure:
(§5) Solvent: 49 parts by weight of N,N-dimethylacetamide
as §2
(§6) To produce a suitable preparation of active compound, 1 part by weight of active compound or active compound combination is mixed with the stated amounts of solvent and emulsifier, and the concentrate is diluted with water to the desired concentration.
(§7) To test for preventive activity, young plants are sprayed with the preparation of active compound or active compound combination at the stated rate of application.
After the spray coating has been dried, the plants are sprayed with a spore suspension of Puccinia triticina. The plants remain for 48 hours in an incubation cabinet at approximately 20° C. and a relative atmospheric humidity of approximately 100%.
(§8) The plants are placed in the greenhouse at a temperature of approximately 20° C. and a relative atmospheric humidity of approximately 80%.
(§9) The test is evaluated 8 days after the inoculation. 0% means an efficacy which corresponds to that of the untreated control, while an efficacy of 100% means that no disease is observed.

Experiment [7] deals with Sphaerotheca fuliginea. The experiment in a line: Sphaerotheca test (cucumbers)/preventive. The settings on record: Table G1, 7 days after inoculation. On the procedure:
as §4, with “application. After the spray coating has dried on, the plants are inoculated with an aqueous spore suspension of Sphaerotheca fuliginea.” for “application.”

The test system of experiment [8] is Blumeria graminis f.sp. hordei. The experiment in a line: Blumeria test (barley)/preventive. The conditions noted are these: Table B1, 7 days after inoculation. On the procedure: Solvent: 49 parts by weight of N,N-dimethylacetamide Emulsifier: 1 part by weight of alkylaryl polyglycol ether To produce a suitable preparation of active compound, 1 part by weight of active compound or active compound combination is mixed with the stated amounts of solvent and emulsifier, and the concentrate is diluted with water to the desired concentration. To test for preventive activity, young plants are sprayed with the preparation of active compound or active compound combination at the stated rate of application. After the spray coating has been dried, the plants are dusted with spores of Blumeria graminis f.sp. hordei.

Experiment [9] deals with Pyrenophora teres. The experiment in a line: Pyrenophora teres-test (barley)/preventive. The conditions noted are these: Table F1, 8 days after inoculation. As to the method:
as §5, §2, §6, §7
After the spray coating has been dried, the plants are sprayed with a spore suspension of Pyrenophora teres. The plants remain for 48 hours in an incubation cabinet at approximately 20° C. and a relative atmospheric humidity of approximately 100%.
as §8, §9

Setting [10] is: Phakopsora pachyrhizi, 168 h, Table D1, 1 ppm a.i., read-out: Efficacy in % found.

On to `CC(C1CC1)C(O)(Cn1cncn1)c1ccc(Cl)cc1` (stereo not drawn) [1.5, cyproconazole], for which the pest or weed control at 1 ppm in experiment [1] (setting [10]) worked out at 63%. In addition, the “Efficacy in % found” value is on record as 57% in experiment [2] (Table H3, 1 ppm a.i.) and 40% in experiment [3] (2 ppm a.i.).
Take propineb [5.29]: the “Efficacy in % found” value in experiment [4] (Table A2, 20 ppm a.i.) is given as 12%; in [5] (400 ppm a.i.) it was 33%; in experiment [6] (400 ppm a.i.) it was 30%; in [7] (10 ppm a.i.), 29%; in experiment [2] (Table H2, 20 ppm a.i.), 56%; in experiment [3] (5 ppm a.i.) it was 14%.
As to `N#Cc1c(Cl)c(Cl)c(Cl)c(C#N)c1Cl` [5.4, chlorothalonil], the “Efficacy in % found” value in experiment [4] (Table A2, 20 ppm a.i.) was found to be 8%; in experiment [6] (160 ppm a.i.), 20%; in experiment [7] (5 ppm a.i.) it was 19%; in experiment [2] (Table H2, 20 ppm a.i.), 0%; in experiment [3] (20 ppm a.i.), 68%.
Consider `CO/C=C(/C(=O)OC)c1ccccc1Oc1cc(Oc2ccccc2C#N)ncn1` [3.3, azoxystrobin], for which the “Efficacy in % found” value in [8] (20 ppm a.i.) amounted to 10%; in [1] (Table D1, 0.25 ppm a.i.) it was 15%; in [9] (20 ppm a.i.), 75%; in experiment [2] (Table H3, 0.125 ppm a.i.) it was 0%; in experiment [3] (0.5 ppm a.i.) it was 88%.
With `O=C(NCCc1ncc(C(F)(F)F)cc1Cl)c1ccccc1C(F)(F)F` [2.6, fluopyram], in experiment [1] (Phakopsora pachyrhizi, 168 h, Table D1, 4 ppm a.i., read-out: Efficacy in % found), the pest or weed control at 4 ppm was 0%. Further, the “Efficacy in % found” value in experiment [9] (40 ppm a.i.) is reported as 94%.
Turning to `CO/C=C(/C(=O)OC)c1ccccc1COc1cccc(C(F)(F)F)n1` [3.16, picoxystrobin], the “Efficacy in % found” value was 30% in experiment [8] (40 ppm a.i.); 75% in [9] (40 ppm a.i.); 65% in [2] (Table H1, 2.5 ppm a.i.).
On to `CC1(C)CCC(Cc2ccc(Cl)cc2)C1(O)Cn1cncn1` (stereo not drawn) [1.30, metconazole], for which, in experiment [6] (40 ppm a.i.), the “Efficacy in % found” value was 70%.
For `CC(C)c1ccc(Cl)cc1CN(C(=O)c1c(C(F)F)nn(C)c1F)C1CC1` [15.151, N-(5-chloro-2-isopropylbenzyl)-N-cyclopropyl-3-(difluoromethyl)-5-fluoro-1-methyl-1H-pyrazole-4-carboxamide], the “Efficacy in % found” value in [4] (Table A1, 0.25 ppm a.i.) is 39%; in [8] (20 ppm a.i.), 0%; in [9] (20 ppm a.i.), 88%.
For the molecule `CO/N=C(/C1=NOCCO1)c1ccccc1Oc1ncnc(Oc2ccccc2Cl)c1F` [3.12, fluoxastrobin], the “Efficacy in % found” value in experiment [9] (20 ppm a.i.) amounted to 13%.
As to `Cn1c(=O)c2sc3c(=O)n(C)c(=O)c3sc2c1=O` [15.61, 2,6-dimethyl-1H,5H-[1,4]dithiino[2,3-c:5,6-c′]dipyrrole-1,3,5,7(2H,6H)-tetrone], the “Efficacy in % found” value in [4] (Table A2, 50 ppm a.i.) is 23%; in [6] (800 ppm a.i.), 40%; in experiment [7] (25 ppm a.i.), 38%.
With `CC1CC(C)(C)c2cccc(NC(=O)c3cn(C)nc3C(F)F)c21` (stereo not drawn) [2.32, 3-(difluoromethyl)-1-methyl-N-(1,1,3-trimethyl-2,3-dihydro-1H-inden-4-yl)-1H-pyrazole-4-carboxamide], the “Efficacy in % found” value in experiment [8] (80 ppm a.i.) is 30%.
On to `OC(Cc1ccccc1Cl)(Cn1nc[nH]c1=S)C1(Cl)CC1` (stereo not drawn) [1.41, prothioconazole], for which the pest or weed control at 0.5 ppm in experiment [1] (Phakopsora pachyrhizi, 168 h, Table D2, 0.5 ppm a.i., read-out: Efficacy in % found) was determined as 20%. In addition, the “Efficacy in % found” value in experiment [6] (80 ppm a.i.) is 20%.
Take `COC(=O)N(OC)c1ccccc1COc1ccn(-c2ccc(Cl)cc2)n1` [3.17, pyraclostrobin]: the “Efficacy in % found” value in experiment [6] (20 ppm a.i.) came out at 20%.
For the molecule `Cn1cc(C(=O)Nc2ccc(F)cc2-c2ccc(Cl)c(Cl)c2)c(C(F)F)n1` [2.1, bixafen], the “Efficacy in % found” value is given as 43% in experiment [4] (Table A1, 0.5 ppm a.i.); 0% in experiment [1] (Table D1, 1 ppm a.i.); 94% in [9] (80 ppm a.i.); 0% in experiment [3] (0.5 ppm a.i.).
Regarding `Fc1ccc([C@]2(Cn3cncn3)O[C@H]2c2ccccc2Cl)cc1` (racemic) [1.12, epoxiconazole], the “Efficacy in % found” value in experiment [5] (40 ppm a.i.) was 33%; in experiment [1] (Table D2, 0.5 ppm a.i.), 23%.
Turning to `CC(C)CC(C)c1sccc1NC(=O)c1cn(C)nc1C(F)(F)F` (stereo not drawn) [2.21, penthiopyrad], the “Efficacy in % found” value in [8] (80 ppm a.i.) is reported as 30%; in experiment [9] (80 ppm a.i.), 63%.
Regarding `CC(C)(C)C(O)(CCc1ccc(Cl)cc1)Cn1cncn1` (stereo not drawn) [1.47, tebuconazole], the pest or weed control at 1 ppm in experiment [1] (setting [10]) came out at 58%. Also, the “Efficacy in % found” value is 38% in [7] (2.5 ppm a.i.) and 30% in [2] (Table H2, 2 ppm a.i.).
As for `Cn1cc(C(=O)Nc2cccc3c2[C@@H]2CC[C@H]3C2=C(Cl)Cl)c(C(F)F)n1` (racemic) [2.29, benzovindiflupyr], the “Efficacy in % found” value was found to be 8% in experiment [1] (Table D1, 0.5 ppm a.i.) and 0% in [9] (40 ppm a.i.).
On to `CON=C(C(=O)OC)c1ccccc1CON=C(C)c1cccc(C(F)(F)F)c1` [3.22, trifloxystrobin], for which the “Efficacy in % found” value in experiment [6] (20 ppm a.i.) stood at 60%; in experiment [3] (0.5 ppm a.i.), 86%.
On to `Cn1cc(C(=O)Nc2ccccc2-c2cc(F)c(F)c(F)c2)c(C(F)F)n1` [2.8, fluxapyroxad], for which the “Efficacy in % found” value in [1] (Table D1, 1 ppm a.i.) is reported as 0%; in experiment [9] (40 ppm a.i.), 94%; in experiment [2] (Table H1, 0.25 ppm a.i.), 0%.
